Like-named read-outs stand apart in the source and are kept apart here.
How the values were obtained:
[1] = test system: M. Furfur; experiment: ZOI test comparing with PS latex (Example 5); assay type: cell-based, Malassezia furfur; conditions: ruptured by rubbing; 1 g shampoo of table 3 diluted with 3.9 g water and 0.1 g model sebum
Description: Zone of Inhibition (ZOI) Method • 1. L&N agar plates were appropriately labelled. • 2. 0.25 ml or 1 ml of quarter strength inoculum was pipetted onto the surface of each plate. • 3. The inoculum was spread evenly over the whole surface of the plates using a sterile spreader. • 4. Filter paper discs were added, in triplicate to the control plate and plates labelled 1 to 5 unruptured and left for 30 minutes in order to soak up any moisture from the agar. • 5. 15 μl of each (diluted, unruptured) formulation were pipetted onto each of the 3 discs in the appropriate agar plate. The liquid was allowed to soak into the disc. • 6. An additional disc was placed over the original discs in the control and 1 to 5 unruptured plates and the liquid allowed to soak into the additional discs. • 7. The discs from the previously ruptured samples were added in triplicate to separate Leeming and Notman agar plates and allowed to absorb moisture from the plates. • 8. […] Any zone of inhibition observed was measured and recorded.
The efficacy of climbazole microcapsules on the growth of M. Furfur measured using Zone of Inhibition (ZOI) when the microcapsules had been ruptured by simple rubbing to simulate hair washing was tested both for the solvent containing core shell microcapsules according to the invention and the latex particles according to the prior art. […]

[2] = manufacturer's published literature; cited from earlier work
[3] = Screen of perfume components, perfume mixtures and oils for ability to solubilise climbazole
Excerpt: A number of perfume components, perfume mixtures and oils considered to be safe to use on scalp were screened to evaluate their ability to solubilise climbazole. Because emulsion polymerisation also encapsulates the solvent an efficient solvent is needed to get a high loading of climbazole into a microcapsule.

Q: What does the source list for `CC(C)(C)C(=O)C(Oc1ccc(Cl)cc1)n1ccnc1` (racemic) [climbazole, (RS)-1-(4-Chlorophenoxy)-1-imidazol-1-yl-3,3-dimethylbutan-2-one]?
A: Ruptured mean ZOI (mm) [1]: 1.00^1 mm; solubility [2]: soluble in alcohol, glycols, surfactants and certain perfume oils

Q: Which “ratio of solvent to climbazole” value [3] does the source give for `CC(=O)OCc1ccccc1` [Benzyl Acetate] here?
A: 5:1

Q: With `CCOC(=O)C=Cc1ccccc1` [Ethyl Cinnamate] as the molecule, how does the “ability to solubilise climbazole” value ([3]; solvent screened at the solvent:climbazole ratios tested) read?
A: failed to solubilise it at any ratio tested

Q: With `CC(O)CO` (stereo not drawn) [propylene glycol] as the molecule, how does the “ability to solubilise climbazole” value [3] read?
A: failed to solubilise it at any ratio tested

Q: For Coconut oil, which “ability to solubilise climbazole” value [3] is on record?
A: failed to solubilise it at any ratio tested

— US20180311124A1, “CLIMBAZOLE MICROCAPSULE AND HAIR CARE COMPOSITION COMPRISING SURFACTANT AND CLIMBAZOLE” (priority 2015, published 2018)
